Experimental data: patent publication US6849602B1 (The Regents of the University of California, priority 1996, dated 2005)
Entries after “also recorded” stand apart in the source; their conditions may differ. Non-standard residues stand in square brackets, D forms with d. No end group written: not given here.

Assays:
[1] = tested on: NS20Y neuroblastoma cells; assay: Neurite outgrowth in NS20Y neuroblastoma cells; type: cell-based
Procedure: NS20Y neuroblastoma cells are grown in Dulbecco's modified Eagle medium (DMEM) containing 10% fetal calf serum (FCS). Cells are removed with trypsin and plated in 30 mm petri dishes onto glass coverslips. […] Cells are cultured for an additional 24 hours, washed with PBS and fixed with Bouin's solution (saturated aqueous picric acid/formalin/acetic acid 15:5:1) for 30 minutes. After fixative is removed with PBS, neurite outgrowth is scored under a phase contrast microscope. […] At least 200 cells are scored in different positions of each dish to determine the percentage of neurite bearing cells with each peptide assayed in duplicate.

[2] = tested on: Newborn mouse cerebellar explants; assay: Ex vivo myelination assay in newborn mouse cerebellar explants; type: cell-based; conditions: 10 μg/ml
Procedure: Newborn mouse cerebellar explants are prepared according to Satomi, Zool. Sci. 9:127-137 (1992). Neurite outgrowth and myelination are observed over 22 days in culture, during the period when the newborn mouse cerebellum normally undergoes neuronal differentiation and myelination begins. […] Neurite outgrowth and myelination in three control and three treated explants is assessed under a bright field microscope with a video camera. On the eighth day, cultures containing the peptides are thinner and more spread out than control cultures. […] Such projections are absent or less prominent in control cultures. […] Thus, the peptide of the invention induces myelination in differentiating cerebellum ex vivo.

Chung model rats = assay: Tactile allodynia (von Frey, 50% paw withdrawal threshold) after bolus intrathecal injection in Chung model rats; type: in vivo, rat
Procedure: Each of the three peptides were obtained in pure form by chemical synthesis, dissolved in sterile PBS and buffered to a neutral pH.
The surgical procedure previously described by Kim and Chung, supra (1992) was performed on male Sprague-Dawley rats weighing 120 to 150 grams to induce an allodynic state. Briefly, the rats were anesthetized with halothane; subsequently, the left L-5 and L-6 spinal nerves were isolated adjacent to the vertebral column and ligated with 6.0 silk suture distal to the dorsal root ganglion.
After a ten to fourteen day post operative recovery period, a spinal catheter was introduced. Five days following the second surgery, intrathecal drug administration was accomplished using a gear driven micro-injection syringe connected to a spinal catheter inserted through the foramen magnum. Prior to testing, the rats were placed in clear plastic wire meshed cages and allowed to acclimate.
To assess the 50% mechanical threshold for paw withdrawal, a von Frey hair was applied to the hind foot avoiding the foot pad. Each of the von Frey hairs, which are calibrated to bend at increasing log forces, were pressed perpendicularly to the foot with sufficient force to cause slight bending for a duration of approximately six to eight seconds. A positive response was noted if the foot was sharply withdrawn. Six data points were collected for each point with the maximum and minimum stimulus noted for each time point. The resulting pattern of the responses was tabulated, and the 50% response threshold was computed. The graph gives the response to the indicated dosage of peptide given as a single intrathecal bolus injection. The X-axis indicates the time after the injection at which point the hypersensitivity to pressure on the foot pad was measured.

neuroblastoma cells = assay: Neurotrophic activity (neurite outgrowth, choline acetyltransferase, cell death); type: cell-based
Schwann cells = assay: Schwann cell death in culture (inhibition of demyelination); type: cell-based
Text: Reduction of Schwann cell death is correlated with inhibition of demyelination. Schwann cells contain an extensive myelin sheath.

[3] = tested on: streptozotocin (STZ)-diabetic rats; assay: Formalin flinch test in streptozotocin-diabetic rats; type: in vivo, rat; set-up: hyperalgesia in formalin test / formalin-induced pain (allodynia): dose or concentration left out as unconfirmed
Procedure: Rats were made diabetic by a single intraperitoneal injection of streptozotocin (STZ) (50 mg/kg body weight, freshly dissolved in 0.9% sterile saline) to ablate pancreatic β cells and induce insulin deficiency as described in Calcutt et al., Pain 68:293-299 (1996). Two days later, diabetes was confirmed in streptozotocin-injected rats by measuring blood glucose levels. Streptozotocin-injected animals with a blood glucose concentration below 15 mmol/l were excluded from subsequent studies, according to the commonly accepted definition of non-fasting hyperglycemia in studies of diabetes in rats.
Both diabetic and control rats were studied at 8 weeks by analyzing the behavioral response to the noxious chemical formalin as an indicator of allodynia (Calcutt et al. supra (1996)). Briefly, rats received a subcutaneous injection of freshly-prepared formalin (50 μl of 0.5% solution in sterile saline) into the dorsal surface of the right hind paw. This concentration of formalin induces sub-maximal behavioral responses in control rats and allows detection of hyperalgesia in diabetic rats during phases Q and 2 (Calcutt et al., Eur. J. Pharmacol. 285:189-197 (1995). Animals were transferred to an observation chamber constructed to allow continuous visualization of the paws. The number of flinches during one minute periods were counted at 5 minute intervals for the next 60 minutes by an observer who was unaware of the treatment group of each animal. Phase 1 was defined as the initial measurement of flinching (1-2 and 5-6 minutes post injection); the Q (quiescent) phase as the measurements made at 10-11, 15-16 and 20-21 minutes; and Phase 2 as all subsequent measurements post injection, as previously defined for studies of diabetic rats (see, for example, Malmberg et al., Neurosci. […] Comparisons of activity during each phase were made by summing the flinches at measurement points within the phase. Diabetic rats gave an abnormal flinch response, as has been reported previously.
Peptide SEQ ID NO:2 was obtained in pure form by chemical synthesis, dissolved in sterile PBS and buffered to a neutral pH. Diabetic rats were divided in two groups of four animals each, which were administered saline or peptide SEQ ID NO:2, respectively.
The formalin testing was done after 4 weeks, of three time weekly injections, and testing was done after the last dose (last bar, FIG. 7).
This EXAMPLE was designed to determine whether prosaptide could also reverse conduction deficits and hyperalgesia in the formalin test pain model once these disorders are established in diabetic rats. SNCV was measured before onset of diabetes and 4-8 weeks later in groups of control, untreated diabetic and prosaptide-treated (200 μg/kg i.p. thrice weekly for the last 4 weeks) diabetic rats. Flinch responses to injection of formalin (50 μl or 0.5% or 5.0% solution) were followed for 60 min in control, 8 week untreated diabetic, […] with prosaptide (200 μg/kg i.p.) thrice weekly for the last 4 weeks (the last treatment being 48-72 hr pre-test).

control rats = assay: Formalin test in control rats; type: in vivo, rat; conditions: single bolus doses of up to 1 mg/kg i.p. 30 min pre-test
taxol-treated mice = assay: Loss of thermal sensation (Hargreaves) in taxol-treated mice; type: in vivo, mouse; conditions: 100 μg/kg, 200 μg/kg or 1 mg/kg
Procedure: Mice were administered taxol in order to induce sensory neuropathy.
The loss of thermal sensation was measured using a Hargreaves sensory testing apparatus as an indicator of sensory neuropathy.

[4] = 200 μg/kg intraperitoneal, two hours before 0.5% formalin

Substance: T[dA]LIDNNATEEILY [SEQ ID NO:2]
- neurite outgrowth (percentage of neurite bearing cells) ([1]; 24 hours, compared to a scrambled control peptide): significantly increases neurite outgrowth
- concentration at which increased neurite outgrowth is evident ([1]; as little as): 0.5 ng/mL
- myelinated axons in the subcortical white matter ([2]; 22 days, compared to control explants): significantly more myelinated axons
- neurite outgrowth (long projections) in explants ([2]; day 15): contain many cells with long projections at the periphery of the explant
- time of maximum (peak) effect post-injection (Chung model rats; intrathecal bolus): 15 to 30 min
- time of return to the pre-injection value (Chung model rats; intrathecal bolus, FIG. 2): ≤ 60 min
- tactile allodynia (force threshold) (Chung model rats; intrathecal bolus, doses of FIG. 2): effective in reducing allodynia
- activity in alleviating neuropathic pain as assayed using Chung rats (Chung model rats; summary statement): reduces the painful allodynia; also recorded: alleviate neuropathic pain
- neurotrophic activity (neuroblastoma cells): have neurotrophic activity
- Schwann cell death (Schwann cells): reduces Schwann cell death in a dose-dependent manner
- hyperalgesia during the formalin test ([3]; 200 μg/kg i.p. thrice weekly for the last 4 weeks, last treatment 48-72 hr pre-test): reduction in hyperalgesia
- abnormal flinch response in Phase 1 [3, 4]: completely prevented the abnormal flinch response
- amelioration of the flinch response in Phase 2 [3, 4]: 70%
- hyperalgesia in formalin test ([3]; after 8 weeks of diabetes, i.p. 30 min before testing): reversed the hyperalgesia
- hyperalgesia in the diabetic rat ([3]; given parenterally, FIG. 7): reverses hyperalgesia
- hyperalgesia during the formalin test ([3]; single bolus 200 μg/kg i.p. 30 min pre-test, 8 week diabetic rats): effective in abolishing hyperalgesia
- formalin-induced pain (allodynia) ([3]; three time weekly injections for 4 weeks): prevention of formalin-induced pain (allodynia)
- responses to formalin in control rats (control rats): without effect on responses to formalin
- loss of thermal sensation (taxol-treated mice): effective in inhibiting loss of thermal sensation
